Experimental data as given in article PMC6148246, “HS-1371, a novel kinase inhibitor of RIP3-mediated necroptosis” (Experimental & Molecular Medicine, 2018).

What was measured:
necrosome complex = biological target: T1, necrosome complex (Homo sapiens, UniProt Q9Y572); assay: Necrosome complex formation, anti-RIP3 immunoprecipitation in HT-29 cells; format: cell-based; settings: HT-29, 5 μM pretreated 2 h, TSZ 4 h
T1 construct: endogenous in cells; host or cells: HT-29
Procedure: (§1) Cells were rinsed in cold phosphate-buffered saline (PBS) and lysed in M2 buffer containing 20 mM Tris at pH 7, 0.5% NP-40, 250 mM NaCl, 3 mM EDTA, 3 mM EGTA, 2 mM DTT, 0.5 mM PMSF, 20 mM β-glycerol phosphate, 1 mM sodium vanadate, and 1 μg/mL leupeptin. The cell extracts were subjected to western blot analysis. For immunoprecipitation, lysates were mixed and precipitated with antibody and protein A-agarose beads overnight or for 4 h at 4 °C. Bound proteins were removed by boiling in SDS and resolved by SDS-PAGE, and immunoblotting was visualized by enhanced chemiluminescence (ECL, Amersham).
Fig. 2 Novel inhibitors can block RIP3 S227 phosphorylation. a Western blotting showing various kinase inhibitor effects on RIP3 S227 auto-phosphorylation. HT-29 cells were treated with four tested kinase inhibitors (1308, 1336, 1338, and 1371, 10 μM) for 9 h. As a control, KK5101 (Trk alpha inhibitor) and HS829 (IKK beta inhibitor) were also treated at a concentration of 10 μM for 9 h. […] HT-29 cells were treated with 4 tested kinase inhibitors for 24 h, and cell viability was analyzed by MTT assay or phase-contrast microscopy. […] Cell lysates were analyzed by immunoblotting. f HT-29 cells were pretreated with Nec-1 (40 μM), DAB (5 μM) or HS-1371 (5 μM) for 2 h and then treated with TSZ for 4 h. […] Immunoprecipitates and total lysates were analyzed by Western blotting

[1] = test system: mouse embryonic fibroblast (MEF) cells; assay: TCZ-induced necroptosis in MEF cells; format: cell-based; settings: TNF plus cycloheximide and zVAD (TCZ)
Procedure: Cells were pretreated with DAB or HS-1371 for 2 h and then treated with TSZ (6 h for immunoblotting, 24 h for cell death assay). Cell lysates were analyzed by immunoblotting (left bottom panel), and cell viability was analyzed by MTT assay (right panel). The results are presented as means ± SEM. *P < 0.05, **P < 0.01, ***P < 0.001. c, d HS-1371 had the same effect on mouse cells. L929 (mouse sarcoma, c) and MEF (mouse embryonic fibroblast, d) cells were pretreated with inhibitors and then necroptosis was induced by TNF. Cell lysates were analyzed by immunoblotting (upper panel), and cell viability was analyzed by MTT assay (bottom panel). The results are presented as means ± SEM. *P < 0.05, **P < 0.01, ***P < 0.001

RIP3 [2] = biological target: T2, RIP3 (Homo sapiens, UniProt Q9Y572); assay: Radiometric kinase assay of RIP3 (Reaction Biology); format: biochemical; set-up: purchased Reaction Biology Corp (Malvern, PA, USA); settings: 10 μM ATP, 20 μM MBP substrate; read-out: IC50 against RIP3
T2 sequence (Q9Y572 whole entry): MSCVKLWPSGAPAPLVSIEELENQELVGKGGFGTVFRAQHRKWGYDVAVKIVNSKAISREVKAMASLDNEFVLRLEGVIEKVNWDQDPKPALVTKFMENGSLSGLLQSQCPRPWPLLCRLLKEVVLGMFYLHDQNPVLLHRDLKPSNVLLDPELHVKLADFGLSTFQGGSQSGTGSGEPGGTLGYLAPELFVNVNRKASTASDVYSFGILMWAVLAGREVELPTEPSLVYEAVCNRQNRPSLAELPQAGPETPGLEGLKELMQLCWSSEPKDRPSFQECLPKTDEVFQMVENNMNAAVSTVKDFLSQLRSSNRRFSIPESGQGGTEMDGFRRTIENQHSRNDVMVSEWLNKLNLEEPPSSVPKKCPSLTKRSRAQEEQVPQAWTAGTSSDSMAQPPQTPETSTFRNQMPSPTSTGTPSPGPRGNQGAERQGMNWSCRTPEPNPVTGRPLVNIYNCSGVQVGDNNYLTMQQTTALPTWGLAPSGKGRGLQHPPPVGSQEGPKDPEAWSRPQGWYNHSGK
Procedure: The inhibitory activities of all compounds toward RIP3 were measured by Reaction Biology Corp (Malvern, PA, USA) by means of radiometric kinase assays ([…]). The enzymatic activity of RIP3 was monitored using 20 μM of myelin basic protein (MBP) dissolved in freshly prepared reaction buffer (20 mM HEPES (pH 7.5), 10 mM MgCl2, 1 mM EGTA, 0.02% BRIJ-35, 0.02 mg/mL BSA, 0.1 mM Na3VO4, 2 mM DTT, 1% DMSO). Each putative RIP3 inhibitor was dissolved in 100% DMSO at specific concentrations and serially diluted with epMotion 5070 in DMSO. Human RIP3 and 20 μM of peptide substrate (MBP) were added to the reaction buffer. After delivering the candidate inhibitor dissolved in DMSO to the kinase reaction mixture using Acoustic technology (Echo550; nanoliter range), the reaction mixture was incubated for 20 min at room temperature. To initiate the enzymatic reaction, ^33P-ATP with specific activity of 10 μCi/μL was added to the reaction mixture to reach a final ATP concentration of 10 μM. Radioactivity was then monitored using the filter binding method after incubation of the reaction mixture for 2 h at room temperature. At given concentrations of inhibitor, biochemical potency was measured by the percent remaining kinase activity with respect to the vehicle (dimethyl sulfoxide) reaction. Curve fits and IC50 values were then obtained using the PRISM program (GraphPad Software). […]

RIP3 [3] = biological target: T2, RIP3; assay: TNF (TSZ)-induced RIP3 and MLKL phosphorylation in HT-29 cells (immunoblot); format: cell-based; set-up: RIP3-expressing HT-29 cells; endogenous in cells; host or cells: HT-29
Procedure: as §1
Fig. 2 Novel inhibitors can block RIP3 S227 phosphorylation. a Western blotting showing various kinase inhibitor effects on RIP3 S227 auto-phosphorylation. HT-29 cells were treated with four tested kinase inhibitors (1308, 1336, 1338, and 1371, 10 μM) for 9 h. As a control, KK5101 (Trk alpha inhibitor) and HS829 (IKK beta inhibitor) were also treated at a concentration of 10 μM for 9 h. Prototypical necroptosis stimuli (TNF + zVAD + either cycloheximide or SMAC mimetic; hereafter referred to as TCZ or TSZ) were applied for 6 h. […] HT-29 cells were treated with 4 tested kinase inhibitors for 24 h, and cell viability was analyzed by MTT assay or phase-contrast microscopy. […] HT-29 cells were pretreated with necrostatin-1 (Nec-1, 40 μM), dabrafenib (DAB, 10 μM) or necrosulfonamide (NSA, 1 μM) for 2 h and then treated with TSZ for 6 h. […] HT-29 cells were pretreated with four tested kinase inhibitors for 2 h and then treated with TSZ for 6 h. Cell lysates were analyzed by immunoblotting. f HT-29 cells were pretreated with Nec-1 (40 μM), DAB (5 μM) or HS-1371 (5 μM) for 2 h and then treated with TSZ for 4 h. Cell lysates were immunoprecipitated with anti-RIP3 antibody. Immunoprecipitates and total lysates were analyzed by Western blotting
TNFα Smac mimetic and the caspase inhibitor zVAD (hereafter referred to as TSZ) is a classical combination that is used to induce RIP3-mediated necroptotic cell death[10],[32]. We first verified that three established pharmacological inhibitors of necroptosis, necrostatin-1 (Nec-1), necrosulfonamide (NSA), and dabrafenib (DAB) could block TNF-induced necroptosis (Fig. 2d). Of these inhibitors, Nec-1 inhibits RIP1 kinase activity[33],[34], DAB inhibits RIP3 kinase activity, and NSA inhibits MLKL functions downstream of RIP3 phosphorylation. […] Next, we tested whether these four inhibitors would inhibit TNF-induced necroptosis signaling by blocking RIP3 kinase activity. […] The effect of HS-1371 on RIP3 kinase activity was compared with another RIP3 inhibitor, GSK’872[16].

T1 sequence (Q9Y572 whole entry, one chain of several): as the sequence (Q9Y572 whole entry) above

Cc1ccc(Oc2ccnc3cc(-c4cnn(C5CCNCC5)c4)ccc23)cc1 [HS-1371, 7-(1-(Piperidin-4-yl)-1H-pyrazol-4-yl)-4-(p-tolyloxy)quinoline]
necrosome complex formation (MLKL recruitment) (necrosome complex): blocked necrosome complex formation | MLKL phosphorylation and cell death [1]: effectively prevented | IC50 (RIP3 [2]): 20.8 nM | RIP3 phosphorylation, pre-treatment and post-treatment (RIP3 [3]; HT-29, 5 μM, pretreated 1 h or applied 1 or 2 h after induction): completely inhibited | MLKL phosphorylation, post-treatment after TSZ (RIP3 [3]; HT-29, post-treatment until approximately 5 h after TSZ): partially blocked | RIP3 phosphorylation, pre-treatment and post-treatment, low concentrations (RIP3 [3]; HT-29, pretreated 1 h or applied 1 or 2 h after induction, low concentrations): partial inhibitory effect | effect on TNF-induced necroptosis signaling (phosphorylation of RIP3 and MLKL) (RIP3 [3]; HT-29, pretreated 2 h, TSZ 6 h): complete inhibitory effect
